{
  "source": "patent US8093273B2",
  "about": "“Flavanoids and isoflavanoids for the prevention and treatment of cardiovascular diseases” (Resverlogix Corp., priority 2004, dated 2012)",
  "key": {"human ApoA-I promoter": {"tested_on": "human ApoA-I promoter", "assay": "ApoA-I promoter induction in Caco-2 intestinal cells (pAI.474-Luc luciferase reporter)", "assay_type": "cell-based", "details": "Caco-2 cells, 15 μM, 48 hours incubation, luciferase activity vs control samples", "outline": "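Caco-2 cells stably carrying the human ApoA-I promoter–firefly luciferase construct (pAI.474-Luc) were starved 24 h in 0.5% FBS medium, then exposed to compound at 0 to 100 μM final for 48 h at 37° C. Luciferase activity in lysates was normalized to Bradford protein and compared with solvent-only and untreated controls.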"}, "hApoA-I transgenic mice": {"tested_on": "hApoA-I transgenic mice", "assay": "hApoA-I transgenic mice, oral gavage for 14 days", "assay_type": "in vivo", "details": "Mus musculus, po, 336 h, relative to pretreatment, read-out: ApoA-I (% change); for change in vivo at 10 mg/kg: 10 mg/kg BID 14 days", "outline": "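Male hApoA-I transgenic mice (7–8 weeks) dosed orally by gavage daily for 14 days, BID or SID, as suspensions at 5 mL/kg in 0.5% methylcellulose/1% Tween 80 or F-101; fenofibrate 100 mg/kg as positive control. After a 4 h fast on day 15, plasma ApoA-I, HDL-C, total cholesterol and triglycerides measured relative to pre-bleed-matched groups.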"}},
  "note": "Like-named read-outs stand apart in the source and are kept apart here.",
  "data": [
    {"compound": "O=c1cc(-c2ccc(O)cc2)oc2ncccc12", "note": "[Example 34, 2-(4-Hydroxy-phenyl)-pyrano[2,3-b]pyridin-4-one]", "values": [
      {"measurement": "ApoA-I Promoter Induction", "setting": "human ApoA-I promoter", "value": "increased"},
      {"measurement": "change in vivo at 3 mg/kg", "setting": "hApoA-I transgenic mice; Table 6 first group, 3 mg/kg BID 14 days, Control 1 (0.5% MC & 1% Tween 80) 11.94", "value": 18.9, "unit": "%"},
      {"measurement": "change in vivo at 10 mg/kg", "setting": "hApoA-I transgenic mice; Table 6 first group, Control 1 11.94", "value": 36.6, "unit": "%"},
      {"measurement": "change in vivo at 30 mg/kg", "setting": "hApoA-I transgenic mice; Table 6 first group, 30 mg/kg BID 14 days, Control 1 11.94", "value": 47.5, "unit": "%"},
      {"measurement": "change in vivo at 10 mg/kg", "setting": "hApoA-I transgenic mice; Table 6 third group, Control 3 (F-101) (6.32)", "value": 30.9, "unit": "%"}
    ]}
  ]
}
